pIC50: −log10 of the molar value.

One experiment has as its system NIH3T3 fibroblasts. Description: Inhibition test of compounds on NIH3T3 fibroblasts (MTT method). It counts as cell-based. The following applies: Mus musculus, relative IC50 obtained from multiple and IC50 of fluorofenidone on a certain plate. The procedure: Inhibition Test of Compounds on NIH3T3 fibroblasts
An MTT method is used and comprises steps of: culturing cells in DMEM culture medium including 5% calf serum and preparing the cells into cell suspension of 3×10^4/ml; inoculating in 96-well plate according to 100 μl/well; transferring new culture medium including compounds with different concentration, fluorofenidone and 1% calf serum after cells are adhered, wherein three repeated wells are provided for each concentration; respectively adding 100 μl of MTT solution in each well after 48 hours and 72 hours of administrating (the culture medium is prepared into 5 mg/ml and kept in dark after filtering), sucking out MTT after 4 hours; adding 150 μl of DMSO which is the dissolving liquid of MTT; after 10 min and MTT is completely dissolved, measuring OD value by ELISA reader; calculating IC50 values of fluorofenidone and measured compounds according to inhibition ratio; calculating multiple of activities of measured compounds and fluorofenidone according to IC50 values of fluorofenidone and measured compounds; and obtaining relative IC50 value of measured compounds according to multiple and IC50 value of fluorofenidone on a certain plate.

Experiment [1] has as its system rat unilateral ureteral obstruction renal fibrosis model. Description: Treatment effect in a rat unilateral ureteral obstruction renal fibrosis model (HE and Masson staining). It is filed as in vivo. The procedure:
Observation of Treatment Effect of Compound 13 in a Rat Unilateral Ureteral Obstruction Renal Fibrosis Model
Nine male SD rats of 188-213 g, coming from Hunan Slac Laboratory Animals Co., Ltd., are illuminated for 12 hours every day; feed is provided by Shanghai Slac Laboratory Animals Co., Ltd.; and drinking water is provided by Department of Laboratory Animal Science of Central South University.
(1) Randomization: nine rats are divided into three groups at random, namely a normal group (n=3); a model group (n=3) and a treatment group (n=3) treated by compound 13 of 15 mg/kg; three rats are in a hutch; and the experimental animals are adaptively fed for two days. […]
HE stained slices of renal tissues are successively observed in fives fields of view of renal tubulointerstitium on upper left side, upper right side, lower left side, lower right side and middle portion by a low power lens and are evaluated according to eight indexes of renal interstitium lesion: renal tubular epithelial cell vacuolar degeneration, renal tubular ectasia, renal tubular atrophy, red cell cast, protein cast, interstitial edema, interstitial fibrosis and interstitial inflammatory cell infiltration; an average value is calculated as the index of renal tubulointerstitial lesion of the sample; and the evaluation standard is based on the reference of Radford M G Jr, Donadio J V Jr, Bergstralh E J, et al. Predicting renal outcome in IgA nephropathy. […]
Masson stained slices of renal tissues are observed in 20 fields of vision for each sample at random under 400× light microscope; percent of blue-stained collagens in the fields of vision is calculated; an average value is determined after semi-quantitative evaluation: no positive staining, 0; <25%, 1; 25-50%, 2; 50-75%, 3; >75%, 4; and the evaluation standard is based on references. […]

Turning to `O=c1ccc(C(F)(F)F)cn1Cc1ccc([N+](=O)[O-])cc1` [Compound 1, 1-(4-nitrobenzyl)-5-(trifluoromethyl)pyridin-2(1H)-one], the results for the pIC50 in the experiment on NIH3T3 fibroblasts (48 hours after administration) and in the experiment on NIH3T3 fibroblasts (72 hours after administration) were 3.26 and 3.33, respectively.
`Nc1ccc(Cn2cc(C(F)(F)F)ccc2=O)cc1` [Compound 2, 1-(4-amino-benzyl)-5-(trifluoromethyl)pyridin-2(1H)-one]: the negative logarithm of the IC50 (pIC50) is 2.86 in the experiment with NIH3T3 fibroblasts (48 hours after administration) and 2.82 in the experiment with NIH3T3 fibroblasts (72 hours after administration).
`O=c1ccc(C(F)(F)F)cn1Cc1ccc(NCCCN2CCOCC2)cc1` [Compound 3, 1-(4-((3-morpholinylpropyl)amino)benzyl)-5-(trifluoromethyl)pyridin-2(1H)-one]: the pIC50 in the experiment on NIH3T3 fibroblasts (48 hours after administration) was 3.37; with NIH3T3 fibroblasts (72 hours after administration), 3.64.
Take `O=c1ccc(C(F)(F)F)cn1Cc1ccc(NCCCN2CCCCC2)cc1` [Compound 4, 1-(4-(((3-piperidin-1-yl)propyl)amino)benzyl)-5-(trifluoromethyl)pyridin-2(1H)-one]: the pIC50 is 3.02 in the experiment with NIH3T3 fibroblasts (48 hours after administration) and 3.84 in the experiment on NIH3T3 fibroblasts (72 hours after administration).
Consider `CN1CCN(CCCNc2ccc(Cn3cc(C(F)(F)F)ccc3=O)cc2)CC1` [Compound 5, 1-(4-((3-(4-methyl-piperazin-1-yl)propyl)amino)benzyl)-5-(trifluoromethyl)pyridin-2(1H)-one], for which the pIC50 in the experiment with NIH3T3 fibroblasts (48 hours after administration) was 3.85; in the experiment on NIH3T3 fibroblasts (72 hours after administration), 4.01.
In the case of `O=c1ccc(C(F)(F)F)cn1Cc1ccc(NCCO)cc1` [Compound 6, 1-(4-((2-hydroxyethyl)amino)benzyl)-5-(trifluoromethyl)pyridin-2(1H)-one], the negative logarithm of the IC50 (pIC50) with NIH3T3 fibroblasts (48 hours after administration) is 3.00; in the experiment on NIH3T3 fibroblasts (72 hours after administration), 3.20.
Take `O=c1ccc(C(F)(F)F)cn1Cc1ccc(NCCN2CCCCC2)cc1` [Compound 7, 1-(4-((2-(piperidyl-1-yl)ethyl)amino)benzyl)-5-(trifluoromethyl)pyridin-2(1H)-one]: the pIC50 in the experiment with NIH3T3 fibroblasts (48 hours after administration) is 2.38; with NIH3T3 fibroblasts (72 hours after administration) it was 3.47.
On the same counts, the results for `O=c1ccc(C(F)(F)F)cn1Cc1ccc(NCCN2CCOCC2)cc1` [Compound 8, 1-(4-((2-morpholinylethyl)amino)benzyl)-5-(trifluoromethyl)pyridin-2(1H)-one] are 3.44 and 3.64.
Regarding `CN1CCN(CCNc2ccc(Cn3cc(C(F)(F)F)ccc3=O)cc2)CC1` [Compound 9, 1-(4-((2-(4-methyl-piperazin-1-yl)ethyl)amino)benzyl)-5-(trifluoromethyl)pyridin-2(1H)-one], the pIC50 in the experiment with NIH3T3 fibroblasts (48 hours after administration) was 3.74; in the experiment with NIH3T3 fibroblasts (72 hours after administration), 3.92.
Take `O=c1ccc(C(F)(F)F)cn1Cc1ccc(NCCN2CCN(CCO)CC2)cc1` [Compound 11, 1-(4-((2-(4-(2-hydroxyethyl)piperazin-1-yl)ethyl)amino)benzyl)-5-(trifluoromethyl)pyridin-2(1H)-one]: the figures for the pIC50 in the experiment with NIH3T3 fibroblasts (48 hours after administration) and in the experiment on NIH3T3 fibroblasts (72 hours after administration) were 3.28 and 3.88, respectively.
Regarding `CC(=O)Nc1ccc(Cn2cc(C(F)(F)F)ccc2=O)cc1` [Compound 13, 1-(4-acetamide-benzyl)-5-(trifluoromethyl)pyridin-2(1H)-one], the figures for the negative-log IC50 (pIC50) with NIH3T3 fibroblasts (48 hours after administration) and in the experiment with NIH3T3 fibroblasts (72 hours after administration) were 3.89 and 4.17, respectively. The “Score (X ± S), renal interstitium collagens of left kidneys, MASSON staining” value in experiment [1] (SD rats, UUO, 15 mg/kg intragastric once per day for 12 days, n=3, model group 2.45 ± 0.38, normal group 0.25 ± 0.00, p < 0.01 vs model) is reported as 1.52 ± 0.16^⋆⋆**. The “Score (X ± S), index of renal tubulointerstitial lesions of obstruction kidneys, HE staining” value in experiment [1] (SD rats, UUO, 15 mg/kg intragastric once per day for 12 days, n=3, model group 9.00 ± 1.00, normal group 0.33 ± 0.12, p < 0.01 vs model) was 7.00 ± 0.35^⋆⋆**. Further, the “Treatment effect on renal fibrosis (conclusion)” value in experiment [1] (rat UUO model, 15 mg/kg) is on record as “can effectively treat renal fibrosis”.
In the case of `O=c1ccc(C(F)(F)F)cn1Cc1c(Cl)cccc1Cl` [Compound 14, 1-(2,6-dichlorobenzyl)-5-(trifluoromethyl)pyridin-2(1H)-one], the pIC50 in the experiment with NIH3T3 fibroblasts (48 hours after administration) is 3.46; with NIH3T3 fibroblasts (72 hours after administration), 3.74.
On to `O=c1ccc(C(F)(F)F)cn1Cc1ccc(F)cc1` [Compound 15, 1-(4-fluorobenzyl)-5-(trifluoromethyl)pyridin-2(1H)-one], for which the pIC50 in the experiment with NIH3T3 fibroblasts (48 hours after administration) is 2.97; in the experiment on NIH3T3 fibroblasts (72 hours after administration), 2.96.
For `O=c1ccc(C(F)(F)F)cn1Cc1ccccc1[N+](=O)[O-]` [Compound 16, 1-(2-nitrobenzyl)-5-(trifluoromethyl)pyridin-2(1H)-one], the pIC50 in the experiment with NIH3T3 fibroblasts (48 hours after administration) and in the experiment on NIH3T3 fibroblasts (72 hours after administration) was 2.99 each time.
With `Nc1ccccc1Cn1cc(C(F)(F)F)ccc1=O` [Compound 17, 1-(2-aminobenzyl)-5-(trifluoromethyl)pyridin-2(1H)-one], the figures for the negative-log IC50 (pIC50) with NIH3T3 fibroblasts (48 hours after administration) and in the experiment on NIH3T3 fibroblasts (72 hours after administration) were 2.74 and 2.90, respectively.
As to `O=c1ccc(C(F)(F)F)cn1Cc1cccc(Cl)c1` [Compound 18, 1-(3-chlorobenzyl)-5-(trifluoromethyl)pyridin-2(1H)-one], the pIC50 in the experiment on NIH3T3 fibroblasts (48 hours after administration) is 2.84; in the experiment on NIH3T3 fibroblasts (72 hours after administration) it was 2.87.
For `COc1ccc(Cn2cc(C(F)(F)F)ccc2=O)cc1` [Compound 19, 1-(4-methoxybenzyl)-5-(trifluoromethyl)pyridin-2(1H)-one], the negative-log IC50 (pIC50) was 3.52 with NIH3T3 fibroblasts (48 hours after administration) and 3.42 in the experiment on NIH3T3 fibroblasts (72 hours after administration).
For `O=c1ccc(C(F)(F)F)cn1Cc1ccccc1F` [Compound 20, 1-(2-fluorobenzyl)-5-(trifluoromethyl)pyridin-2(1H)-one], the negative-log IC50 (pIC50) in the experiment on NIH3T3 fibroblasts (48 hours after administration) is 3.56; in the experiment with NIH3T3 fibroblasts (72 hours after administration), 3.41.
For `O=c1ccc(C(F)(F)F)cn1Cc1ccccc1NCCO` [Compound 21, 1-(2-(2-hydroxyethylamino)benzyl)-5-(trifluoromethyl)pyridin-2(1H)-one], the pIC50 in the experiment with NIH3T3 fibroblasts (48 hours after administration) is 3.18; with NIH3T3 fibroblasts (72 hours after administration), 3.23.
With `O=c1ccc(C(F)(F)F)cn1Cc1ccccc1NCCN1CCNCC1` [Compound 22, 1-(2-(2-(piperazin-1-yl)ethylamino)benzyl)-5-(trifluoromethyl)pyridin-2(1H)-one], the pIC50 is 3.77 with NIH3T3 fibroblasts (48 hours after administration) and 3.54 with NIH3T3 fibroblasts (72 hours after administration).
Take `O=c1ccc(C(F)(F)F)cn1Cc1ccccc1NCCN1CCOCC1` [Compound 25, 1-(2-(2-morpholinoethylamino)benzyl)-5-(trifluoromethyl)pyridin-2(1H)-one]: the pIC50 is 3.43 with NIH3T3 fibroblasts (48 hours after administration) and 3.58 in the experiment with NIH3T3 fibroblasts (72 hours after administration).
On the same counts, the results for `Cc1ccc(=O)n(-c2cccc(F)c2)c1` [Fluorofenidone, reference compound] are 2.35 and 2.45.
On to `O=c1ccc(C(F)(F)F)cn1Cc1ccccc1` [Structure IV, reference compound], for which the negative logarithm of the IC50 (pIC50) in the experiment with NIH3T3 fibroblasts (48 hours after administration) is 2.94; in the experiment on NIH3T3 fibroblasts (72 hours after administration) it was 3.14.

For the origin of these results see patent US8377932B2, “Preparation of 1-(substituted benzyl)-5-trifluoromethyl-2(1H)pyridone compounds and salts thereof and their applications” (Central South University, priority 2009, dated 2013).
